Laboratory results as given in publication PMC11554305, “Functional identification of soluble uric acid as an endogenous inhibitor of CD38” (eLife, 2024).
Values belong to the compound of their own block, whether it stands above or below them.

How the values were obtained:
[1] = tested on: cLPS-induced systemic inflammation; test: cLPS-induced systemic inflammation; type: in vivo, mouse; conditions: WT mice; for Effect on cLPS-induced systemic inflammation: OA or inosine alone, 1-day oral treatment
Experimental: Plasma sUA levels in WT and CD38 KO mice were increased to the minimum physiological levels of humans by 1-day sUA supplementation (OA plus inosine). Two hours after the last treatment of OA, or OA plus inosine, the mice were intraperitoneally injected with sterile PBS or cLPS (2 or 20 mg/kg), the injection volume was 3 mL/kg. Four hours (20 mg/kg) or 6 hr (2 mg/kg) after stimulation, the mice were sacrificed and whole blood, plasma, and serum were collected.
(§1) Human IL-1β, mouse IL-1β, IL-6, IL-18, TNF-α, and CXCL1 levels were measured according to the protocols provided by the manufacturer. Serum samples were diluted before ELISA when applicable. In this study, all the samples were frozen after collection and thawed before ELISA.

[2] = tested on: MSU crystal-induced peritonitis; test: MSU crystal-induced peritonitis; type: in vivo; conditions: WT mice, MSU crystals 2 mg/mouse; for Effect on MSU crystal-induced peritonitis: OA or inosine alone, 1-day oral treatment
Experimental: Plasma sUA levels in WT and CD38 KO mice were increased to the minimum physiological levels of humans by 1-day sUA supplementation (OA plus inosine). Two hours after the last treatment of OA, or OA plus inosine, the mice were intraperitoneally injected with sterile PBS or MSU crystals (2 mg/mouse), and the injection volume was 200 μL/mouse. Six hours after stimulation, the mice were sacrificed and blood samples were collected. For each mouse, the peritoneal cavity was washed with 5 mL ice-cold sterile PBS, the supernatant was collected by centrifugation for subsequent ELISA, and cell pellets were used for total viable cell count by Trypan Blue staining. In brief, cell pellet from 1.5 mL of peritoneal lavage fluid was resuspended in RBC lysis buffer for 30 s, sterile PBS (ninefold volume) was added to terminate lysis. Afterward, the cells were centrifuged at 1000 rpm for 5 min and resuspended in sterile PBS for viable cell count. For neutrophil count, peritoneal lavage fluid was directly used for smears after appropriate dilution, and subsequently, Wright-Giemsa staining was performed according to the protocol provided by the manufacturer.
as §1

[3] = Moderate sUA supplementation in mice (plasma, whole blood, tissue and serum levels); type: in vivo, mouse; conditions: for Interference with whole blood NAD+ metabolism: OA or inosine alone, 1-day treatment, inflammatory conditions
Experimental: Plasma sUA levels in mice were increased to the minimum physiological levels of humans by moderate sUA supplementation. For 1-day sUA supplementation, WT and CD38 KO mice received oral administration of saline, OA (1.5 g/kg), or OA (1.5 g/kg) plus inosine (1.5 g/kg), the gavage volume was 5 mL/kg. Drug suspension in saline was freshly prepared and warmed to 37°C before each treatment. The mice received the first treatment on the evening (19:00) of the first day and the second treatment on the morning (9:00) of the second day. For 3- or 7-day sUA supplementation, WT and CD38 KO mice received the same treatment twice daily from the evening of the first day to the morning of the last day. Four hours after the last treatment, the mice were sacrificed and whole blood, serum, plasma, and tissues were collected for metabolic studies. For immunological studies, mice were stimulated with different ligands 2 hr after the second treatment on the morning (9:00) of the second day.
WT mice received oral administration of saline, OA, or OA plus inosine (1-day supplementation model, as described above). One day (28 hr) or 3 days (76 hr) after the second treatment, the mice were sacrificed and whole blood and plasma were collected.
The collected whole blood samples were immediately diluted 10-fold in 5% ice-cold PCA and homogenized on ice. After 10 min centrifugation at 15,000 rpm, 4°C, the supernatant was subpackaged for measurement or –80°C storage. For NAD^+ measurement in whole blood, the supernatant was handled without freezing and thawing and was measured within 24 hr of sample collection. For measurement of plasma sUA, after sample collection, we immediately diluted the plasma with 5% ice-cold PCA, after vortex, samples were centrifuged at 15,000 rpm, 4°C for 10 min, the collected supernatant was used for the subsequent handling and measurement within 24 hr.
After the collection of blood samples, the mice were immediately perfused with ice-cold sterile PBS. The tissue samples were collected, dried with tissue paper, and weighed. All the tissue samples were immediately homogenized in 5% ice-cold PCA on ice, then centrifuged at 15,000 rpm, 4°C for 10 min. The supernatant was collected and stored at –80°C until further handling for measurement (see LC-MS/MS analysis).
As mentioned above, samples (cells, tissues, blood, or reaction buffer) were treated with ice-cold PCA, after extraction and centrifugation, the collected supernatant was appropriately diluted in 5% ice-cold PCA when applicable, and then was vortexed for 30 s and centrifuged at 15,000 rpm, 4°C for 5 min. Afterward, 30 μL supernatant was added into 200 μL 5 mM ammonium formate containing internal standards at indicated concentrations. Then, all the samples were vortexed for 30 s and centrifuged at 15,000 rpm, 4°C for 5 min again, the final supernatant was used for subsequent measurement. All the samples after handling were immediately analyzed in this study without freezing and thawing.
The LC-MS/MS system consisted of a triple quadrupole LCMS-8050 (Shimadzu) and an LC-30A system (Shimadzu). NAD^+, NMN, and the N-cyclohexyl benzamide (NCB, internal standard, 5 ng/mL) were eluted on Altlantis HILIC Silica (2.1×150 mm, 5 μm) at 40°C using an isocratic mobile phase containing 60% water with 0.1% formic acid and 40% acetonitrile with 0.1% formic acid at 0.4 mL/min. The selected transitions of m/z were 664.10 → 136.10 for NAD^+, 334.95 → 123.15 for NMN, and 204.10 → 122.20 for NCB in positive ion mode. NAD^+ and NMN were measured independently in this study, as their peaks were hardly separated within a short time.
sUA, cADPR, and FYU-981 (internal standard, 1 μM, Fuji Yakuhin Co., Ltd.) were eluted on CAPCELL PAK C8 TYPE UG 120 (2×150 mm, 5 μm) at 40°C. sUA and FYU-981 were separated using a gradient mobile phase containing water with 0.1% formic acid (A) and acetonitrile with 0.1% formic acid (B) at 0.4 mL/min. […]

[4] = 6 hr, 1-day sUA supplementation, not in CD38 KO mice

SMILES: O=c1[nH]cnc2c1ncn2[C@@H]1O[C@H](CO)[C@@H](O)[C@H]1O [Inosine, inosine, reference compound]
Effect on cLPS-induced systemic inflammation ([1]; cLPS 2 mg/kg): hardly affected
Effect on MSU crystal-induced peritonitis [2]: hardly affected
Interference with whole blood NAD+ metabolism ([3]; WT mice): had no interference

concentration at 4 h ([3]; mouse, plasma, mice, oral OA 1.5 g/kg plus inosine 1.5 g/kg, read-out: Plasma sUA levels in the sUA-supplementation models): ~120 µM
Serum IL-1β production ([3]; sUA-supplementation models within 7 days): did not show an increase
SMILES: O=c1[nH]c(=O)c2[nH]c(=O)[nH]c2[nH]1 [sUA, uric acid]
cLPS-induced production of serum IL-1β and IL-18 ([1]; cLPS 2 mg/kg, 6 hr, 1-day sUA supplementation (OA plus inosine), abrogated in CD38 KO mice): suppressed
Serum TNF-α levels ([1]; cLPS 2 mg/kg, 6 hr, 1-day sUA supplementation): without affecting
High-dose cLPS-induced systemic inflammation ([1]; cLPS 20 mg/kg, 4 hr): hardly limited
Production of IL-1β and IL-6, peritoneal lavage fluid [2, 4]: reduced the production of IL-1β and IL-6
Recruitment of viable cells and neutrophils, peritoneal lavage fluid [2, 4]: inhibited the recruitment of viable cells and neutrophils
Whole blood NAD+ levels ([3]; 1- or 3-day moderate sUA supplementation (OA plus inosine), WT mice, not in CD38 KO mice): slightly but significantly increased
cADPR production in whole blood ([3]; 1-day sUA supplementation, inflammatory conditions (cLPS 2 mg/kg), not under non-inflammatory conditions): decrease in cADPR production
NAD+ levels in the brain and heart ([3]; 7-day sUA-supplementation model): appeared to be elevated
Plasma sUA and whole blood NAD+ after sUA release ([3]; WT mice, 1-day or 3-day release after 1-day supplementation): gradually returned to their initial levels
NMN levels in vivo ([3]; sUA supplementation, whole blood): minor effect on NMN levels

SMILES: O=C(O)c1nc(=O)[nH]c(=O)[nH]1 [OA, oxonic acid, reference compound]
Effect on cLPS-induced systemic inflammation ([1]; cLPS 2 mg/kg): hardly affected
Effect on MSU crystal-induced peritonitis [2]: hardly affected
Interference with whole blood NAD+ metabolism ([3]; WT mice): had no interference
Effect on plasma sUA levels ([3]; mice, short-term administration of OA alone): failed to increase plasma sUA levels
